Results published in ChEMBL document CHEMBL4507299, “Data for DCP probe PF-04554878” (2021).

Key:
[1] = molecular target: Casein kinase I isoform delta (Homo sapiens) (UniProt P48730); test: CKLdelta Invitrogen kinase activity assay; details: Compound concentration 1.0 uM
[2] = molecular target: D(3) dopamine receptor (Homo sapiens) (UniProt P35462); details: Compound concentration 10.0 uM
D(1A) dopamine receptor = D(1A) dopamine receptor (Homo sapiens, UniProt P21728); test: GPCRScan assay: inhibition of D1; design: radioligand conc. used [nm] 0.6 – 1.3, parental cells HEKT
D(1A) dopamine receptor, sequence (P21728 whole entry): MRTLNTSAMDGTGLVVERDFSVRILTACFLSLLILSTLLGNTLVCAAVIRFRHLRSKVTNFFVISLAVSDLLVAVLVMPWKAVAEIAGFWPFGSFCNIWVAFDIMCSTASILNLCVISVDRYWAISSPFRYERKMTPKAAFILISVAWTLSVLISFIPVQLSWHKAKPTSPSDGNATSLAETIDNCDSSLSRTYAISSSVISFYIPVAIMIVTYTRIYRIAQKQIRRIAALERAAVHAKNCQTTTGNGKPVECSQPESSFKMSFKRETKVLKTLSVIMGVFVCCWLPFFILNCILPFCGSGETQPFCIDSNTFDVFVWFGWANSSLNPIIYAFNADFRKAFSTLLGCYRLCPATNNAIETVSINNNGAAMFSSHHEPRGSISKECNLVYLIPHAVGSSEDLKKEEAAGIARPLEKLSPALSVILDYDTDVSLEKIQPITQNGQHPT

[3] = molecular target: T1, Aurora kinase A (Homo sapiens) (UniProt O14965); test: Aurora-A Invitrogen kinase activity assay; details: Compound concentration 1.0 uM
T1 sequence (whole entry): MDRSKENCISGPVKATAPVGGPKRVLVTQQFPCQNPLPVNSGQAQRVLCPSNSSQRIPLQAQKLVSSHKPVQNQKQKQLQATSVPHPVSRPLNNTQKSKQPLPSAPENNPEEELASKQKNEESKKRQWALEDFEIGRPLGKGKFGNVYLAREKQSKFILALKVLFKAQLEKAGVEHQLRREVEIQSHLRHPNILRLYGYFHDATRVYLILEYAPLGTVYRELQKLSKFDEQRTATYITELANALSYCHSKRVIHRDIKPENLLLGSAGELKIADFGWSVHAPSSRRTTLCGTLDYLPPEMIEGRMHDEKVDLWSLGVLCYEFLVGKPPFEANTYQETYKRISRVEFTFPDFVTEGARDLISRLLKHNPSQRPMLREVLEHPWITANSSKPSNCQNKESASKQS

[4] = molecular target: T2, Serine/threonine-protein kinase Sgk1 (Homo sapiens) (UniProt O00141); test: SGK Invitrogen kinase activity assay; details: Compound concentration 1.0 uM
T2 sequence (whole entry): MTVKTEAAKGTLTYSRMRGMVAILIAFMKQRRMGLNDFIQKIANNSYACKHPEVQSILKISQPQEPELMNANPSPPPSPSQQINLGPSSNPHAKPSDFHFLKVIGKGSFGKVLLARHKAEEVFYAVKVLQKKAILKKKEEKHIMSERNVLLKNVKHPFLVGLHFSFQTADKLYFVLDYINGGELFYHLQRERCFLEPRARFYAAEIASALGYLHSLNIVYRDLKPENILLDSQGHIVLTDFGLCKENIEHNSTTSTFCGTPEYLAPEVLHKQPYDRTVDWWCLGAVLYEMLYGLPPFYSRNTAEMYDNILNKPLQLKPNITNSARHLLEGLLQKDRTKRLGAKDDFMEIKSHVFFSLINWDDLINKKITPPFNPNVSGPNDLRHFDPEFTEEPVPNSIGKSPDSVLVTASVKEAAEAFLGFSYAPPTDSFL

[5] = molecular target: Serine/threonine-protein kinase MARK1 (Homo sapiens, UniProt Q9P0L2); test: MARK1 Invitrogen kinase activity assay
[6] = molecular target: Mitogen-activated protein kinase kinase kinase 9 (Homo sapiens, UniProt P80192); test: MAP3K9 Invitrogen kinase activity assay
[7] = molecular target: Rho-associated protein kinase 1 (Homo sapiens) (UniProt Q13464); test: ROCK1 Invitrogen kinase activity assay; details: Compound concentration 1.0 uM
Rho-associated protein kinase 1 (Homo sapiens), sequence (Q13464 2-1354 limits assumed): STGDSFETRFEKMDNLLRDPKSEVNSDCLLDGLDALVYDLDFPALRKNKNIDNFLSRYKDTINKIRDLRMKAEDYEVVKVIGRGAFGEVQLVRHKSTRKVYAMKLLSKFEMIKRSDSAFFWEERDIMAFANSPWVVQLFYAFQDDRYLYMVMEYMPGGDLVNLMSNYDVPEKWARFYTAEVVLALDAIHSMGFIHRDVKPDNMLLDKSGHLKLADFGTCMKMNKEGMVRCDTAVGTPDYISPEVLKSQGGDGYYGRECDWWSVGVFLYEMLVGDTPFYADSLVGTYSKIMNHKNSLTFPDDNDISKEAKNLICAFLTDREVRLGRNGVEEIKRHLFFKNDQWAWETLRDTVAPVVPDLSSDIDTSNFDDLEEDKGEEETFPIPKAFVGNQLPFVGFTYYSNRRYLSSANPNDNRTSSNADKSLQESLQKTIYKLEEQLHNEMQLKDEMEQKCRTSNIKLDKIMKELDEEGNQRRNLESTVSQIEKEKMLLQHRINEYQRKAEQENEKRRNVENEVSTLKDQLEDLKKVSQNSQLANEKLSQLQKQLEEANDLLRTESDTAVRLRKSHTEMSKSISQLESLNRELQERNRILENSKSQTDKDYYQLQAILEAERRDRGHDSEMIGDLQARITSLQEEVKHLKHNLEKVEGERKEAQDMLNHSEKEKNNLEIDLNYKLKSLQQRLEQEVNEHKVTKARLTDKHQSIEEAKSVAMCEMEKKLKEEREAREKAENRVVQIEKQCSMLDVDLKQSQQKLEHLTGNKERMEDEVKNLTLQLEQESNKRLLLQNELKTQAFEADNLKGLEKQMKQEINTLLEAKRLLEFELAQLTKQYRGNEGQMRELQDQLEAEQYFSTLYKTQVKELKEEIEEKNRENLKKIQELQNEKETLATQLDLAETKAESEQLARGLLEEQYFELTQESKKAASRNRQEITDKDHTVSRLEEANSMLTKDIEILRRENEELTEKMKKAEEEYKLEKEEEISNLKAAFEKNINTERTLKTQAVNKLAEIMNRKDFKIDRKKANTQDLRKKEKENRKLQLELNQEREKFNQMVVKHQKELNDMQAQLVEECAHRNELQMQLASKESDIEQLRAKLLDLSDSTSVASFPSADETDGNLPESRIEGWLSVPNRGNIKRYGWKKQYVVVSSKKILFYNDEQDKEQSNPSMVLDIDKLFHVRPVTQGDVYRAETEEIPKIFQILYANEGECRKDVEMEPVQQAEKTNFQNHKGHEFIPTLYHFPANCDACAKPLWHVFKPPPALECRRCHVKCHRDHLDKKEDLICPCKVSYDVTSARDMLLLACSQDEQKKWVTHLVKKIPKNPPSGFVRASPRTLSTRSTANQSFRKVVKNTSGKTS

[8] = molecular target: T3, Inhibitor of nuclear factor kappa-B kinase subunit beta (Homo sapiens) (UniProt O14920); test: IKKβ Invitrogen kinase activity assay; details: Compound concentration 1.0 uM
T3 sequence (whole entry): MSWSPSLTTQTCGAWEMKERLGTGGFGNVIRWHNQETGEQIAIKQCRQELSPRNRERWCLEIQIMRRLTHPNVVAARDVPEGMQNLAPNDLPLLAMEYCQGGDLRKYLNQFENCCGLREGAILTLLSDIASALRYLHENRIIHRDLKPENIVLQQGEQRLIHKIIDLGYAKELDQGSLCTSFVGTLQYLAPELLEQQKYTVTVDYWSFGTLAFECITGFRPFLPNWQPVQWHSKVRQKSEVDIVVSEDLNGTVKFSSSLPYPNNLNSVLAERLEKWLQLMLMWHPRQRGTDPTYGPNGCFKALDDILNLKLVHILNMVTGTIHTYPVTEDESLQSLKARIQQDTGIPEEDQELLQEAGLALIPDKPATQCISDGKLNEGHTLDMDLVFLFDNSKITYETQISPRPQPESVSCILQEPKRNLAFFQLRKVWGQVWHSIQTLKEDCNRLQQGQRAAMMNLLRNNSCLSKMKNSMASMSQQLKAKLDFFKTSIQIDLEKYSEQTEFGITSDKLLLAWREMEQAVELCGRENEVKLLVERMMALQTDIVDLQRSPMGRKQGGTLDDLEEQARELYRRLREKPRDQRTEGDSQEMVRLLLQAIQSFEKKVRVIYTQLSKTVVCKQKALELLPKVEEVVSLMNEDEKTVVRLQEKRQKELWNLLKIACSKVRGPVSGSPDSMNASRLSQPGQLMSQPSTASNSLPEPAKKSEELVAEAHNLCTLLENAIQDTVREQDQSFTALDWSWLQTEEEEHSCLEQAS

[9] = molecular target: Mu-type opioid receptor (Homo sapiens) (UniProt P35372); details: Compound concentration 10.0 uM
Mu-type opioid receptor (Homo sapiens), sequence (P35372 whole entry): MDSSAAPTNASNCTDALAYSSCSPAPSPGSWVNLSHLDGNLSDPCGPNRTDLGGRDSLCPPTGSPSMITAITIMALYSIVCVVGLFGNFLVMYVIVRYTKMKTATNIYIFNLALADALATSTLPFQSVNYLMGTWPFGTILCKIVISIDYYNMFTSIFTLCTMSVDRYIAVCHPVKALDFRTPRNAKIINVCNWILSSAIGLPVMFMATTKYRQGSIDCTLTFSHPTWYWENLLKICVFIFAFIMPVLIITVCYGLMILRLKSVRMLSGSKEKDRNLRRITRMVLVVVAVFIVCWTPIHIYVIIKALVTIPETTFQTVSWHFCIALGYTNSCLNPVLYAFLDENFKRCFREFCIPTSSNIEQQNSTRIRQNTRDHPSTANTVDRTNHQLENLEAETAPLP

[10] = molecular target: Beta-2 adrenergic receptor (Homo sapiens) (UniProt P07550); details: Compound concentration 10.0 uM
Beta-2 adrenergic receptor (Homo sapiens), sequence (P07550 whole entry, looked up): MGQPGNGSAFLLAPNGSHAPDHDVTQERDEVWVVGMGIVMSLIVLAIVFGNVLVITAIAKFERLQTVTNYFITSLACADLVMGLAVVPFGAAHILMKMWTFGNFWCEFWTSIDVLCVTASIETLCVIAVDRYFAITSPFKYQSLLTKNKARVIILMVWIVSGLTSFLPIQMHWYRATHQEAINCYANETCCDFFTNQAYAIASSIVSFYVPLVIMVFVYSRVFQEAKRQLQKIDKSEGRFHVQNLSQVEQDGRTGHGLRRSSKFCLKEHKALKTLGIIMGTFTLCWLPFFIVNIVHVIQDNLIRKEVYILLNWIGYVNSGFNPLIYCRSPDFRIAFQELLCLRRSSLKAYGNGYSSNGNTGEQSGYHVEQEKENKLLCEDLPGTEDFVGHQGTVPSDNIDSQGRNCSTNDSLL

Casein kinase I isoform delta (Homo sapiens), sequence (P48730 whole entry, looked up, canonical isoform): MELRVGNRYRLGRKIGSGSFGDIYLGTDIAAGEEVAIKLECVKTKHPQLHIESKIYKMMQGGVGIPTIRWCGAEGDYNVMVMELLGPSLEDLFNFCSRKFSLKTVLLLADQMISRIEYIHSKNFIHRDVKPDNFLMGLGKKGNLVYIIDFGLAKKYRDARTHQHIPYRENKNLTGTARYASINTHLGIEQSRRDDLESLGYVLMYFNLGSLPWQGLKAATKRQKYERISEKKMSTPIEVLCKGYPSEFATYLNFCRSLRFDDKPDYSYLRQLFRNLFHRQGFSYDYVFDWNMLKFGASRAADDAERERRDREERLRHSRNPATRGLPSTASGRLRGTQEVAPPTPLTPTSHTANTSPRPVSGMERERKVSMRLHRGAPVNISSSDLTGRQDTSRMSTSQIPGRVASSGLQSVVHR
D(3) dopamine receptor (Homo sapiens), sequence (P35462 whole entry): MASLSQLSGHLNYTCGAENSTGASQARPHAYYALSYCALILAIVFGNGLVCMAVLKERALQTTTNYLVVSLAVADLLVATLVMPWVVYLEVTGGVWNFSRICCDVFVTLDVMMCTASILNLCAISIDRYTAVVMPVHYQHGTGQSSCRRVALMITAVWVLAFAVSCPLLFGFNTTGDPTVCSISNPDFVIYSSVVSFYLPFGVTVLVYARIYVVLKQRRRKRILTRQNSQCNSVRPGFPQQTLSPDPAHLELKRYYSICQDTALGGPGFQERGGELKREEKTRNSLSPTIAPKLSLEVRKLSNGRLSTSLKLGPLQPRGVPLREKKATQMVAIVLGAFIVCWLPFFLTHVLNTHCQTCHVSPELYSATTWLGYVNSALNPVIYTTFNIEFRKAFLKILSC

Compound | inhibition [1] [%] | inhibition [2] [%] | Ki (D(1A) dopamine receptor) [nM] | inhibition [3] [%] | inhibition [4] [%] | IC50 [5] [nM] | inhibition ([5]; Compound concentration 1.0 uM) [%] | IC50 [6] [nM] | inhibition ([6]; Compound concentration 1.0 uM) [%] | inhibition [7] [%] | inhibition [8] [%] | inhibition [9] [%] | inhibition [10] [%]
CNC(=O)c1ccc(Nc2ncc(C(F)(F)F)c(NCc3nccnc3N(C)S(C)(=O)=O)n2)cc1 [DEFACTINIB] | 27 | 11.3 | 10000 | 87 | 30 | 448 | 81 | 75.3 | 98 | 20 | 4 |  | 
CN(c1ccnc(CNc2nc(Nc3ccc4c(c3)CC(=O)N4)ncc2C(F)(F)F)n1)S(C)(=O)=O [PF-00911705] |  |  |  |  |  |  |  |  |  |  |  | 0.77 | 15.3
